Measured values as given in patent EP1733758A1, “Methods for administration of a farnesyl dibenzodiazepinone” (Ecopia Biosciences Inc., priority 2005, dated 2006).

Key:
[1] = system: orthotopic C6 glioma tumor xenograft; assay: Orthotopic C6 glioma tumor xenograft survival model; assay type: in vivo, CD1 female nude mice; conditions: IP 30 mg/kg days 1, 2 and 3, then 10 mg/kg days 4 and 5 and 9 to 38
Description: The antitumor activity of the compound of formula I was further tested in a orthotopic C6 glioma tumor xenograft model in mice. CD1 female nude mice (6 weeks of age) were grafted intra-cerebrally with 5 x 10^4 (volume of 10 microliters) rat C6 glioma cells (day 0). Treatment was initiated 24 h after tumor cell implantation. The compound of Formula I was administered intraperitoneally (IP) at a concentration of 30 mg/kg (volume of 10 mL/Kg) on days 1, 2 and 3 followed by IP injections of 10 mg/kg on days 4 and 5 and 9 to 38. Vehicle (30% PEG; 30% PG; 40% H2O was injected in a volume of 10 mL/kg using the same route and schedule.
Body weight of animals was monitored every other day and the effect of the compound of Formula I on growth of intracerebral glioma tumors was evaluated by mouse survival and percentage increase in life span (%ILS, expressed as mean survival time of treated animals minus the mean survival time of the control group). By criteria established by the National Cancer Institute, increases in life span exceeding 25% indicate that the drug has significant antitumor activity (Plowman et al. (1997) Human tumor xenografts models in NCI drug development. In: Theicher BA (ed) Anticancer drug development guide: prescreening, clinical trials and approval. Human press, Totowa, pp 101-125). Statistical analysis of mouse survival was performed by Kaplan-Mayer analysis. […]

[2] = system: human breast tumor (MDA-MB-231) xenografts; assay: Human MDA-MB-231 breast tumor xenograft efficacy; assay type: in vivo, HRLN female nude mice; conditions: for T/C / %T/C: day 21; for %T/C: P < 0.0001
Description: The antitumor activity of the compound of Formula I was further tested in a human MD-MB-231 breast cancer model in mice. HRLN female nude mice (8 weeks of age) were treated with 5x10^6 MDA-MB-231 tumor cells (SC) in the right flank. Animals were randomized (ten per group) when tumors reach an average size of 80 - 120 mg and treatment began according to the table below. For these studies, the compound of Formula I was formulated in 5% ethanol, 5% PEG-400, 15% Polysorbate 80, and 75% of water containing 5% dextrose.
Tumor measurements were taken twice weekly using calipers and were converted to tumor mass (in milligrams) using the formula: with^2 (mm) x length (mm) x 0.52. Body weights were also recorded twice weekly. Statistical analysis was done using the unpaired two-tailed Student's t test.

[3] = Pharmacokinetics of 14-day continuous intravenous infusion in rats; assay type: in vivo, Sprague-Dawley rats; conditions: for steady-state plasma concentration / Css / T½z: 14-day CIV; for Css: average of plasma concentration between 30h and 14 days; for T½z: calculated at the end of treatment
Description: Sprague-Dawley rats received an intravenous continuous infusion over 14 days of Formula I at 25 mg/kg/day, 50 mg/kg/day, or 75 mg/kg/day at a rate of 2 mL/kg/h for 14 consecutive days (same formulation as in Example 7). Blood was collected from the jugular vein in tubes containing K2 EDTA from 3 rats/sex/group at the following time points: 2, 6, and 12 hours after the start of dosing on Day 1, on Day 2 at 6 hours (approximately 30 hours after the start of dosing), on Days 6 and 10 at 6 hours, and on Day 15, 1 hour prior the end of dosing, and then at 5 min, 15 min, 30 min, 1 h, and 2 h after the end of dosing.

CC(C)=CCC/C(C)=C/CC/C(C)=C/CN1C(=O)c2cccc(O)c2Nc2c(O)cc(O)cc21 [Formula I, 10-farnesyl-4,6,8-trihydroxy-dibenzodiazepin-11-one]
increase in life span [1]: 29% | increase survival [1]: 7 days | T/C ([2]; IP 30 mg/kg every three days x 7, P = 0.0007): 58% | %T/C ([2]; SC 20 mg/kg everyday for 21 days): 40% | %T/C ([2]; SC 30 mg/kg days 1 to 5, 8 to 12): 35% | T/C ([2]; SC 50 mg/kg every three days x 7, P= 0.0019): 68% | antitumor activity ([2]; bolus intravenous treatment (100 mg/kg, 5/2/5/2/5)): did not result in activity | steady-state plasma concentrations ([3]; 14-day CIV at doses of 50 and 75 mg/kg/day, above therapeutic threshold): > 2 µM | steady-state plasma concentration ([3]; 25 mg/kg/day): ~0.8 µM | Css ([3]; 25 mg/kg/day): 347 ng/mL | T½z ([3]; 25 mg/kg/day): 1.6 h | steady-state plasma concentration ([3]; 50 mg/kg/day): ~2.5 µM | Css ([3]; 50 mg/kg/day): 1,150 ng/mL | T½z ([3]; 50 mg/kg/day): 1.2 h | steady-state plasma concentration ([3]; 75 mg/kg/day): ~3.9 µM | Css ([3]; 75 mg/kg/day): 1,796 ng/mL | T½z ([3]; 75 mg/kg/day): 1.2 h | plasma concentration ([3]; CIV 50 mg/kg/day, Day 10 (unusually high)): 1,753 ng/mL
